Laboratory results reported in patent US20090253618A1, “NEURONAL DIFFERENTIATION-INDUCING PEPTIDE AND USE THEREOF” (TOAGOSEI CO., LTD, priority 2005, published 2009).
Ends that are not written are not given here.

Tests used:
[1] = system: neural stem cells procured from mice; assay: Neuronal differentiation-inducing activity in mouse neural stem cell culture (immune antibody procedure, MAPs and NeuN markers); type: cell-based; conditions: same tests as for samples 1 and 6 (10 ng/mL and 100 ng/mL, 24 hours), concentration of the result not stated
[2] = system: adipose stem cells procured from humans; assay: Neuronal differentiation-inducing activity in human adipose stem cell culture (immune antibody procedure, MAPs and NeuN markers); type: cell-based; conditions: same tests as for samples 1 and 6 (10 ng/mL and 100 ng/mL, 24 hours), concentration of the result not stated

| Substance | degree of neuronal differentiation [1] | degree of neuronal differentiation [2] |
| --- | --- | --- |
| YARAAARQARA-ALFELCGRAV (YARAAARQARAALFELCGRAV) [sample 23, PTD4 plus 10 residues from the N terminal of the BC-box of MUF1] | significant neuronal differentiation | significant neuronal differentiation |
| YARAAARQARA-PLAHLCRLRVRKAIG (YARAAARQARAPLAHLCRLRVRKAIG) [sample 7] | significant neuronal differentiation | significant neuronal differentiation |
| YARAAARQARA-PLMDLCRRSVRLALG (YARAAARQARAPLMDLCRRSVRLALG) [sample 20] | significant neuronal differentiation | significant neuronal differentiation |
| YARAAARQARA-PLQELCRQRIVAAVG (YARAAARQARAPLQELCRQRIVAAVG) [sample 11] | significant neuronal differentiation | significant neuronal differentiation |
| YARAAARQARA-SLKHLCRKALRSFLT (YARAAARQARASLKHLCRKALRSFLT) [sample 5] | significant neuronal differentiation | significant neuronal differentiation |
| YARAAARQARA-SLQDLCCRAVVSCTP (YARAAARQARASLQDLCCRAVVSCTP) [sample 10] | significant neuronal differentiation | significant neuronal differentiation |
| YARAAARQARA-SLQFLALKALISERR (YARAAARQARASLQFLALKALISERR-NH2) [sample 21] | significant neuronal differentiation | significant neuronal differentiation |
| YARAAARQARA-SLQHICRMSI (YARAAARQARASLQHICRMSI) [sample 17, PTD4 plus 10 residues from the N terminal of the BC-box of mWSB-1] | significant neuronal differentiation | significant neuronal differentiation |
| YARAAARQARA-SLQHICRMSIRRVMS (YARAAARQARASLQHICRMSIRRVMS) [sample 2] | significant neuronal differentiation | significant neuronal differentiation |
| YARAAARQARA-SLQHICRTVICNCTT (YARAAARQARASLQHICRTVICNCTT) [sample 14] | significant neuronal differentiation | significant neuronal differentiation |
| YARAAARQARA-SLQHLCRFRIRQLVR (YARAAARQARASLQHLCRFRIRQLVR) [sample 4] | significant neuronal differentiation | significant neuronal differentiation |
| YARAAARQARA-SLQHLCRLVINRLVA (YARAAARQARASLQHLCRLVINRLVA) [sample 24] | significant neuronal differentiation | significant neuronal differentiation |
| YARAAARQARA-SLQYICRAVICRCTT (YARAAARQARASLQYICRAVICRCTT) [sample 9] | significant neuronal differentiation | significant neuronal differentiation |
| YARAAARQARA-SLQYLALKALVTPKK (YARAAARQARASLQYLALKALVTPKK-NH2) [sample 19] | significant neuronal differentiation | significant neuronal differentiation |
| YARAAARQARA-SLQYLCKFVI (YARAAARQARASLQYLCKFVI) [sample 22] | significant neuronal differentiation | significant neuronal differentiation |
| YARAAARQARA-SLQYLCRFVI (YARAAARQARASLQYLCRFVI) [sample 15, PTD4 plus 10 residues from the N terminal of the BC-box of hSOCS-6] | significant neuronal differentiation | significant neuronal differentiation |
| YARAAARQARA-SLQYLCRFVIRQYTK (YARAAARQARASLQYLCRFVIRQYTK) [sample 18] | significant neuronal differentiation | significant neuronal differentiation |
| YARAAARQARA-SLTHLCRLEIRSSIK (YARAAARQARASLTHLCRLEIRSSIK) [sample 8] | significant neuronal differentiation | significant neuronal differentiation |
| YARAAARQARA-TLLSLCRVAV (YARAAARQARATLLSLCRVAV) [sample 16, PTD4 plus 10 residues from the N terminal of the BC-box of mASB-1] | significant neuronal differentiation | significant neuronal differentiation |
| YARAAARQARA-TLLSLCRVAVRRALG (YARAAARQARATLLSLCRVAVRRALG) [sample 3] | significant neuronal differentiation | significant neuronal differentiation |
| YARAAARQARA-TLQHFCRLAINKCT (YARAAARQARATLQHFCRLAINKCT) [sample 12] | significant neuronal differentiation | significant neuronal differentiation |
| YARAAARQARA-TLQHLCRKTVNGHLD (YARAAARQARATLQHLCRKTVNGHLD) [sample 13] | significant neuronal differentiation | significant neuronal differentiation |
